Results taken from PubChem BioAssay (NCI).
“And” between values parts separate entries of the source, which are not always exact repeats. Identical values can stand only once.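 Briefly, cells in 96-well plates were exposed to five compound concentrations for 48 h, and endpoints were estimated by linear interpolation. Abbreviation: GI50, concentration required for 50% inhibition of growth. TGI: total growth inhibition.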

Tests used:
Assay in all cases: growth of human tumour cells (NCI), 48 h
EKVX NSCLC = tested on: EKVX NSCLC
KM12 colon = tested on: KM12 colon
HOP-92 NSCLC = tested on: HOP-92 NSCLC
SNB-19 CNS = tested on: SNB-19 CNS
OVCAR-4 ovarian = tested on: OVCAR-4 ovarian
HT29 colon = tested on: HT29 colon
UO-31 renal = tested on: UO-31 renal
MOLT-4 leukemia = tested on: MOLT-4 leukemia
MCF7 breast = tested on: MCF7 breast
SK-MEL-2 melanoma = tested on: SK-MEL-2 melanoma

CCCCNC1CCC2(SCCS2)c2[nH]c3ccccc3c21 (configuration not stated)
TGI (EKVX NSCLC): > 100 µM | TGI (KM12 colon): 36.9 µM | TGI (HOP-92 NSCLC): > 81.9 µM | TGI (SNB-19 CNS): > 100 µM | TGI (OVCAR-4 ovarian): > 100 µM | TGI (HT29 colon): > 100 µM | TGI (UO-31 renal): > 89.4 µM | TGI (MOLT-4 leukemia): 33.5 µM | TGI (MCF7 breast): 13.2 µM

O=S(=O)(Oc1ccc2oc3ccccc3c2c1-c1c(OS(=O)(=O)C(F)(F)F)ccc2oc3ccccc3c12)C(F)(F)F
TGI (EKVX NSCLC): > 100 µM | TGI (KM12 colon): > 100 µM | TGI (HOP-92 NSCLC): > 100 µM | TGI (SNB-19 CNS): > 100 µM | TGI (OVCAR-4 ovarian): > 100 µM | TGI (HT29 colon): > 100 µM | TGI (UO-31 renal): > 100 µM | TGI (MOLT-4 leukemia): > 100 µM | TGI (SK-MEL-2 melanoma): > 100 µM | TGI (MCF7 breast): > 100 µM

C=C(C)C(=O)CC[C@@H](C)[C@H]1[C@@H](OC2OC(CO)C(O)C(O)C2O)C[C@@]2(C)[C@@H]3C[C@H](O)C4C(C)(C)[C@@H](OC5OC(CO)C(O)C(O)C5O)CC[C@@]45C[C@@]35CC[C@]12C (some centres not stated)
TGI (EKVX NSCLC): > 100 µM | TGI (KM12 colon): > 100 µM | TGI (HOP-92 NSCLC): > 100 µM | TGI (SNB-19 CNS): > 100 µM | TGI (OVCAR-4 ovarian): > 100 µM | TGI (HT29 colon): > 100 µM | TGI (UO-31 renal): > 100 µM | TGI (MOLT-4 leukemia): > 100 µM | TGI (SK-MEL-2 melanoma): > 100 µM | TGI (MCF7 breast): > 100 µM

Clc1ccc(-c2ccc(-c3nnc(CCc4nnc(-c5ccc(-c6ccc(Cl)cc6)o5)o4)o3)o2)cc1
TGI (EKVX NSCLC): > 100 µM | TGI (KM12 colon): > 100 µM | TGI (HOP-92 NSCLC): > 64.1 µM | TGI (SNB-19 CNS): > 100 µM | TGI (OVCAR-4 ovarian): > 100 µM | TGI (HT29 colon): > 100 µM | TGI (UO-31 renal): > 100 µM | TGI (MOLT-4 leukemia): > 45.3 µM | TGI (SK-MEL-2 melanoma): > 100 µM | TGI (MCF7 breast): > 100 µM

O=C1Oc2ccccc2C(=O)/C1=C/N1C(=O)N/C(=C\c2ccccc2O)C1=O
TGI (EKVX NSCLC): > 100 µM | TGI (KM12 colon): > 100 µM | TGI (HOP-92 NSCLC): > 91 µM | TGI (SNB-19 CNS): > 100 µM | TGI (OVCAR-4 ovarian): > 100 µM | TGI (HT29 colon): > 100 µM | TGI (UO-31 renal): > 100 µM | TGI (MOLT-4 leukemia): > 100 µM | TGI (SK-MEL-2 melanoma): > 100 µM | TGI (MCF7 breast): > 100 µM

C1=C\SS/C=C\SS/C=C\SS/C=C\SS/1
TGI (EKVX NSCLC): > 100 µM | TGI (KM12 colon): > 100 µM | TGI (HOP-92 NSCLC): > 100 µM | TGI (SNB-19 CNS): > 100 µM | TGI (OVCAR-4 ovarian): > 100 µM | TGI (HT29 colon): > 100 µM | TGI (UO-31 renal): > 100 µM | TGI (MOLT-4 leukemia): > 100 µM | TGI (SK-MEL-2 melanoma): > 100 µM | TGI (MCF7 breast): > 100 µM

CC[C@@]1(O)C(=O)OCc2c1cc1n(c2=O)Cc2c-1nc1ccccc1c2/C=N\NC(=O)C(N)CC(C)C (some centres not stated)
TGI (EKVX NSCLC): > 100 µM | TGI (HOP-92 NSCLC): 5.35 µM | TGI (SNB-19 CNS): > 100 µM | TGI (OVCAR-4 ovarian): > 100 µM | TGI (HT29 colon): > 100 µM | TGI (UO-31 renal): 0.201 µM | TGI (MOLT-4 leukemia): 0.106 µM | TGI (SK-MEL-2 melanoma): 2.99 µM | TGI (MCF7 breast): > 100 µM

Cc1ccc(S(=O)(=O)c2scc(-c3ccccc3)c2C)cc1
TGI (EKVX NSCLC): > 100 µM | TGI (KM12 colon): > 100 µM | TGI (HOP-92 NSCLC): > 100 µM | TGI (SNB-19 CNS): > 100 µM | TGI (OVCAR-4 ovarian): > 100 µM | TGI (HT29 colon): > 100 µM | TGI (UO-31 renal): > 100 µM | TGI (MOLT-4 leukemia): > 100 µM | TGI (SK-MEL-2 melanoma): > 100 µM | TGI (MCF7 breast): > 100 µM

O=c1[nH]c(=O)n(C2CC(O)C(CO)O2)cc1I (configuration not stated)
TGI (EKVX NSCLC): > 100 µM | TGI (KM12 colon): > 100 µM | TGI (HOP-92 NSCLC): > 100 µM | TGI (SNB-19 CNS): > 100 µM | TGI (OVCAR-4 ovarian): > 100 µM | TGI (HT29 colon): > 100 µM | TGI (UO-31 renal): > 100 µM | TGI (MOLT-4 leukemia): > 100 µM | TGI (SK-MEL-2 melanoma): > 100 µM | TGI (MCF7 breast): > 100 µM

O=C1c2ccccc2C(=O)N1n1c(Cc2ccccc2)n[nH]c1=O
TGI (EKVX NSCLC): > 100 µM | TGI (KM12 colon): > 100 µM | TGI (HOP-92 NSCLC): > 100 µM | TGI (SNB-19 CNS): > 100 µM | TGI (OVCAR-4 ovarian): > 100 µM | TGI (HT29 colon): > 100 µM | TGI (UO-31 renal): > 100 µM | TGI (MOLT-4 leukemia): > 100 µM | TGI (SK-MEL-2 melanoma): > 100 µM | TGI (MCF7 breast): > 100 µM

CCOC(=O)c1cccc(NC(=O)CCl)c1
TGI (EKVX NSCLC): 8.9 µM | TGI (KM12 colon): 21.4 µM | TGI (HOP-92 NSCLC): 16.9 µM | TGI (SNB-19 CNS): > 92.8 µM | TGI (OVCAR-4 ovarian): 8.31 µM | TGI (HT29 colon): 14.1 µM | TGI (UO-31 renal): 13.7 µM | TGI (MOLT-4 leukemia): 27.2 µM | TGI (SK-MEL-2 melanoma): 8.57 µM | TGI (MCF7 breast): 6.81 µM

O=C(Cc1ccccc1)NCCc1ccc(O)c(O)c1
TGI (EKVX NSCLC): > 100 µM | TGI (KM12 colon): > 100 µM | TGI (HOP-92 NSCLC): > 100 µM | TGI (SNB-19 CNS): > 100 µM | TGI (OVCAR-4 ovarian): 28 µM | TGI (HT29 colon): > 100 µM | TGI (UO-31 renal): > 100 µM | TGI (MOLT-4 leukemia): > 100 µM | TGI (SK-MEL-2 melanoma): 80.1 µM | TGI (MCF7 breast): > 100 µM

O=C1NC(N/N=C\C(O)C(O)C(O)CO)=N/C1=C/c1ccccc1 (configuration not stated)
TGI (EKVX NSCLC): > 100 µM | GI50 (KM12 colon): > 100 µM and 28.1 µM | TGI (KM12 colon): > 100 µM | GI50 (HOP-92 NSCLC): > 100 µM and 45 µM | TGI (HOP-92 NSCLC): > 100 µM | TGI (SNB-19 CNS): > 100 µM | GI50 (OVCAR-4 ovarian): 84.1 µM and 23.4 µM | TGI (OVCAR-4 ovarian): > 100 µM and 79.8 µM | TGI (HT29 colon): > 100 µM | TGI (UO-31 renal): > 100 µM | TGI (MOLT-4 leukemia): > 100 µM and 54.3 µM | TGI (SK-MEL-2 melanoma): > 100 µM | TGI (MCF7 breast): > 100 µM

CC1=NN(c2nc(N)nc(-c3ccccc3S(N)(=O)=O)n2)C(C)(C)C1
TGI (EKVX NSCLC): > 100 µM | TGI (KM12 colon): > 100 µM | TGI (HOP-92 NSCLC): > 100 µM | TGI (OVCAR-4 ovarian): > 100 µM | TGI (HT29 colon): > 100 µM | TGI (UO-31 renal): > 100 µM | TGI (MOLT-4 leukemia): 79.8 µM | TGI (SK-MEL-2 melanoma): 57 µM | TGI (MCF7 breast): > 100 µM

C=CCNC(=S)Nc1sc2c(c1C(=O)OCC)CC(C)CC2 (configuration not stated)
TGI (EKVX NSCLC): 65.9 µM | TGI (KM12 colon): > 100 µM | TGI (HOP-92 NSCLC): > 100 µM | TGI (SNB-19 CNS): 62.5 µM | TGI (OVCAR-4 ovarian): > 100 µM | TGI (HT29 colon): 47.1 µM | TGI (UO-31 renal): 56.3 µM | TGI (MOLT-4 leukemia): 80 µM | TGI (SK-MEL-2 melanoma): 48.4 µM | TGI (MCF7 breast): 45.4 µM

COCOc1ccc(C(=O)C(C)c2ccc(OCOC)cc2OCOC)c(O)c1 (configuration not stated)
TGI (EKVX NSCLC): > 100 µM | TGI (HOP-92 NSCLC): > 100 µM | TGI (SNB-19 CNS): > 100 µM | TGI (OVCAR-4 ovarian): > 100 µM | TGI (HT29 colon): > 100 µM | TGI (UO-31 renal): > 100 µM | TGI (MOLT-4 leukemia): > 100 µM | TGI (MCF7 breast): > 100 µM

Clc1ccc2c(SCC3CO3)c3ccccc3nc2c1 (configuration not stated)
TGI (EKVX NSCLC): 20.4 µM | TGI (HOP-92 NSCLC): 5.08 µM | TGI (SNB-19 CNS): 15.3 µM | TGI (OVCAR-4 ovarian): 21.1 µM | TGI (HT29 colon): 3.23 µM | TGI (UO-31 renal): 3.34 µM | TGI (MOLT-4 leukemia): 4.3 µM | TGI (SK-MEL-2 melanoma): 8.11 µM | TGI (MCF7 breast): 3.19 µM
